Read-outs that look alike come from different tables or passages of the source.
Assays:
[1] = Assessment of formulation components: solubility in non-aqueous solvents; type: physicochemical
Method: A series of experiments were performed to assess and optimize the components of the subject formulations. AA refers to L-ascorbic acid. U refers to urea. % values are wt %.
Additional ingredients were chosen for their compatibility with (e.g., miscibility in) 1,3 propanediol, 1,2 propanediol, and 1,3 butanediol.

skin [2] = conditions: concentrations of 0.2%; clinical data from SEPPIC; cited from earlier work
skin [3] = conditions: cited from earlier work
[4] = in most solvents; cited from earlier work

In the case of Madecassoside, the solubility ([1]; at a concentration of 0.2% in 1,3 propanediol, 1,2 propanediol and 1,3 butanediol) is listed as “soluble” and the “ability to reduce erythema (skin redness)” value (skin [2]) is listed as “desirable ability to reduce erythema”.

For `NC(N)=O` [urea], the “ability of solvent to solubilize urea” value ([1]; solvent 1,2-hexanediol) was “moderate”, the “ability of solvent to solubilize urea” value ([1]; solvent 1,2-propanediol (propylene glycol)) was “moderate” and the “ability of solvent to solubilize urea” value ([1]; solvent 1,3-butanediol (butylene glycol)) was “moderate”. The “ability of solvent to solubilize urea” value ([1]; solvent 1,3-propanediol) was “moderate”, the “ability of solvent to solubilize urea” value ([1]; solvent 1,5-pentanediol, otherwise referred to as pentylene glycol) was “moderate” and the “ability of solvent to solubilize urea” value ([1]; solvent dimethyl isosorbide) was “very limited”. For the same molecule, the “ability of solvent to solubilize urea” value ([1]; solvents glycerin and diglycerin) was “moderate”.

In the case of `CC(C)(CO)[C@@H](O)C(=O)NCCCO` [Panthenol], the “concentration at which inhibition of transepidermal water loss is apparent” value (skin [3]) is given as ≥ 1%.

With `CC1(C)[C@@H](O[C@H]2O[C@H](C(=O)O)[C@@H](O)[C@H](O)[C@H]2O[C@@H]2O[C@H](C(=O)O)[C@@H](O)[C@H](O)[C@H]2O)CC[C@]2(C)[C@H]3C(=O)C=C4[C@@H]5C[C@@](C)(C(=O)O)CC[C@]5(C)CC[C@@]4(C)[C@]3(C)CC[C@@H]12` [glycyrrhizic acid, Glycyrrhizic acid] the solubility ([1]; in 1,3-propanediol) was “shows solubility”.

In the case of `COc1cc(CC(C(C)=O)C(C)=O)ccc1O` [Acetyl zingerone], the solubility ([1]; in 1,3 propanediol, 1,2 propanediol and 1,3 butanediol at the desired concentrations (0.5-1%)) is reported as “readily soluble”.

For `O=C(O)CCCCCCCC(=O)O` [AzA, Azelaic acid, reference compound], the “change of solubility by the presence of hydroxyethyl urea” value ([1]; in 1,3 propanediol) was “slightly increased”, the “concentration that can be solubilized” value ([1]; in 1,3 propanediol) was “up to 10%” and the “concentration that is possible to solubilize” value ([1]; with 10% AA, 5% U in a 1,3 propanediol base) was 7.5%. The solubility [4] was “very poorly soluble”.

Source: US20250228756A1, “Anhydrous Urea Emulsions with a Retinoid Agent” (Baek Clinical Inc., priority 2021, published 2025)
